These results are taken from patent publication US20250122219A1 (priority 2023, published 2025).

For one series, the system named is HIV-1 (IIIB). Briefly: Antiviral assay in MT-4 cells. The conditions noted are these: Human immunodeficiency virus 1, MT4, 120 h; HIV-1 IIIB in MT-4 cells, 5 days incubation, Cell Titer Glo; read-out: MT4 EC50. Format: cell-based. The gist of the method:
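Read-out: CellTiter-Glo luminescence after 5 days at 37 °C, reflecting survival of MT-4 cells infected with HIV-1 IIIB (1:250 fresh stock dilution) versus mock-infected. Compounds serially diluted into RPMI with 10% FBS; AZT at 5 μM served as positive control.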

Series [1] in a line: Cytotoxicity assay in MT-4 cells. The conditions noted are these: human; uninfected MT-4 cells, 5 days incubation, Cell Titer Glo; read-out: MT4 CC50. The format is cell-based. The gist of the method:
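Viability read by Cell Titer Glo luminescence after 5 days at 37 °C. MT-4 cells, not infected, in complete RPMI (10% FBS), received compound dilution series. Base cytotoxicity set with […] puromycin.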

Where only a bound is given, the exact number is not on record here.

As to `CCCCCCCC(=O)OCOc1c2n(cc(C(=O)NCc3ccc(F)cc3F)c1=O)[C@@H]1CN(C2=O)[C@@H](C)CC[C@]12CC(C)=NO2` [Example 96, (((3′S,5S,7′R)-10′-((2,4-difluorobenzyl)carbamoyl)-3,3′-dimethyl-1′,11′-dioxo-1′,4′,5′,11′-tetrahydro-3′H,4H,7′H-spiro[isoxazole-5,6′-[2,7]methanopyrido[1,2-a][1,4]diazonin]-12′-yl)oxy)methyl octanoate], the EC50 in the series on HIV-1 (IIIB) worked out at 0.562 nM. Further, the 50% cytotoxic concentration (CC50) at 5 days in series [1] was no less than 50000 nM.
For `CCCCCCCCC(=O)OCOc1c2n(cc(C(=O)NCc3ccc(F)cc3F)c1=O)[C@@H]1CN(C2=O)[C@@H](C)CC[C@]12CC(OC)=NO2` [Example 97, (((3′S,5S,7′R)-10′-((2,4-difluorobenzyl)carbamoyl)-3-methoxy-3′-methyl-1′,11′-dioxo-1′,4′,5′,11′-tetrahydro-3′H,4H,7′H-spiro[isoxazole-5,6′-[2,7]methanopyrido[1,2-a][1,4]diazonin]-12′-yl)oxy)methyl nonanoate], in the series on HIV-1 (IIIB), the EC50 came out at 4.59 nM. In addition, the half-maximal cytotoxic concentration (CC50) at 5 days in series [1] is no less than 50000 nM.
On to `CCCCCCCCC(=O)OCOc1c2n(cc(C(=O)NCc3ccc(F)cc3F)c1=O)[C@@H]1CN(C2=O)[C@@H](C)CC[C@]12CC(C)=NO2` [Example 98, (((3′S,5S,7′R)-10′-((2,4-difluorobenzyl)carbamoyl)-3,3′-dimethyl-1′,11′-dioxo-1′,4′,5′,11′-tetrahydro-3′H,4H,7′H-spiro[isoxazole-5,6′-[2,7]methanopyrido[1,2-a][1,4]diazonin]-12′-yl)oxy)methyl nonanoate], for which the EC50 with HIV-1 (IIIB) worked out at 3.87 nM. Further, in series [1], the CC50 at 5 days is no less than 50000 nM.
Consider `CCCCCCCCCC(=O)OCOc1c2n(cc(C(=O)NCc3ccc(F)cc3F)c1=O)[C@@H]1CN(C2=O)[C@@H](C)CC[C@]12CC(OC)=NO2` [Example 99, (((3′S,5S,7′R)-10′-((2,4-difluorobenzyl)carbamoyl)-3-methoxy-3′-methyl-1′,11′-dioxo-1′,4′,5′,11′-tetrahydro-3′H,4H,7′H-spiro[isoxazole-5,6′-[2,7]methanopyrido[1,2-a][1,4]diazonin]-12′-yl)oxy)methyl decanoate], for which the EC50 in the series on HIV-1 (IIIB) was 0.471 nM. Also, the CC50 at 5 days in series [1] is no less than 50000 nM.
For the molecule `CCCCCCCCCC(=O)OCOc1c2n(cc(C(=O)NCc3ccc(F)cc3F)c1=O)[C@@H]1CN(C2=O)[C@@H](C)CC[C@]12CC(C)=NO2` [Example 100, (((3′S,5S,7′R)-10′-((2,4-difluorobenzyl)carbamoyl)-3,3′-dimethyl-1′,11′-dioxo-1′,4′,5′,11′-tetrahydro-3′H,4H,7′H-spiro[isoxazole-5,6′-[2,7]methanopyrido[1,2-a][1,4]diazonin]-12′-yl)oxy)methyl decanoate], the EC50 in the series on HIV-1 (IIIB) worked out at 0.246 nM. In addition, in series [1], the cytotoxic concentration (CC50) at 5 days is no less than 50000 nM.
In the case of `CCCCCCCCCCCC(=O)OCOc1c2n(cc(C(=O)NCc3ccc(F)cc3F)c1=O)[C@@H]1CN(C2=O)[C@@H](C)CC[C@]12CC(OC)=NO2` [Example 101, (((3′S,5S,7′R)-10′-((2,4-difluorobenzyl)carbamoyl)-3-methoxy-3′-methyl-1′,11′-dioxo-1′,4′,5′,11′-tetrahydro-3′H,4H,7′H-spiro[isoxazole-5,6′-[2,7]methanopyrido[1,2-a][1,4]diazonin]-12′-yl)oxy)methyl dodecanoate], the EC50 in the series on HIV-1 (IIIB) was 5.79 nM. Besides, the cytotoxic concentration (CC50) at 5 days in series [1] was no less than 50000 nM.
For the molecule `CCCCCCCCCCCC(=O)OCOc1c2n(cc(C(=O)NCc3ccc(F)cc3F)c1=O)[C@@H]1CN(C2=O)[C@@H](C)CC[C@]12CC(C)=NO2` [Example 102, (((3′S,5S,7′R)-10′-((2,4-difluorobenzyl)carbamoyl)-3,3′-dimethyl-1′,11′-dioxo-1′,4′,5′,11′-tetrahydro-3′H,4H,7′H-spiro[isoxazole-5,6′-[2,7]methanopyrido[1,2-a][1,4]diazonin]-12′-yl)oxy)methyl dodecanoate], in the series with HIV-1 (IIIB), the EC50 was determined as 4.96 nM. Also, in series [1], the cytotoxic concentration (CC50) at 5 days is no less than 50000 nM.

In general, EC50 refers to the concentration needed to bring the measured effect to its halfway point. The term CC50 denotes the concentration giving 50% cytotoxicity.
